The target in test [1] is T1, beta-catenin-B-cell lymphoma 9 protein complex (Homo sapiens, UniProt P35222).
T1 sequence (P35222 whole entry): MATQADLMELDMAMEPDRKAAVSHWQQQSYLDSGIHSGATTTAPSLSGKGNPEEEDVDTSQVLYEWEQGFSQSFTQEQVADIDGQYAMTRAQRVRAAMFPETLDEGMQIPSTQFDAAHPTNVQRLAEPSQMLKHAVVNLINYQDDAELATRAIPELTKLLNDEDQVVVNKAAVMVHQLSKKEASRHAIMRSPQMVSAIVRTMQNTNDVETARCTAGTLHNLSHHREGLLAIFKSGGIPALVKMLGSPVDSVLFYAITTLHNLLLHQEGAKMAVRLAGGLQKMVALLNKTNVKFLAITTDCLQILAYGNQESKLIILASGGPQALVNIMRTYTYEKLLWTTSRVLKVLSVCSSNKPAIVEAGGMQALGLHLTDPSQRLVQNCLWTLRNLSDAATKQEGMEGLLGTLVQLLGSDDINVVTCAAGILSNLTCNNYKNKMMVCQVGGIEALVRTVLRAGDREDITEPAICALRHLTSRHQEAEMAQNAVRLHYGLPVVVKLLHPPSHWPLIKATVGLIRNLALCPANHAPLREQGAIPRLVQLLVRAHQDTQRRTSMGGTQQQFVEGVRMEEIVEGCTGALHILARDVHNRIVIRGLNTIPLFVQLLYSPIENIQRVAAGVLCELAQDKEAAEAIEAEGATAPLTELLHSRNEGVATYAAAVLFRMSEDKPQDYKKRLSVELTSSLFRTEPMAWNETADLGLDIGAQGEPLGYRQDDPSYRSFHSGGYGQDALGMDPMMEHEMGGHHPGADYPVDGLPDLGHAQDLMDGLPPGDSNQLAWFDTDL
T1 sequence (O00512 whole entry): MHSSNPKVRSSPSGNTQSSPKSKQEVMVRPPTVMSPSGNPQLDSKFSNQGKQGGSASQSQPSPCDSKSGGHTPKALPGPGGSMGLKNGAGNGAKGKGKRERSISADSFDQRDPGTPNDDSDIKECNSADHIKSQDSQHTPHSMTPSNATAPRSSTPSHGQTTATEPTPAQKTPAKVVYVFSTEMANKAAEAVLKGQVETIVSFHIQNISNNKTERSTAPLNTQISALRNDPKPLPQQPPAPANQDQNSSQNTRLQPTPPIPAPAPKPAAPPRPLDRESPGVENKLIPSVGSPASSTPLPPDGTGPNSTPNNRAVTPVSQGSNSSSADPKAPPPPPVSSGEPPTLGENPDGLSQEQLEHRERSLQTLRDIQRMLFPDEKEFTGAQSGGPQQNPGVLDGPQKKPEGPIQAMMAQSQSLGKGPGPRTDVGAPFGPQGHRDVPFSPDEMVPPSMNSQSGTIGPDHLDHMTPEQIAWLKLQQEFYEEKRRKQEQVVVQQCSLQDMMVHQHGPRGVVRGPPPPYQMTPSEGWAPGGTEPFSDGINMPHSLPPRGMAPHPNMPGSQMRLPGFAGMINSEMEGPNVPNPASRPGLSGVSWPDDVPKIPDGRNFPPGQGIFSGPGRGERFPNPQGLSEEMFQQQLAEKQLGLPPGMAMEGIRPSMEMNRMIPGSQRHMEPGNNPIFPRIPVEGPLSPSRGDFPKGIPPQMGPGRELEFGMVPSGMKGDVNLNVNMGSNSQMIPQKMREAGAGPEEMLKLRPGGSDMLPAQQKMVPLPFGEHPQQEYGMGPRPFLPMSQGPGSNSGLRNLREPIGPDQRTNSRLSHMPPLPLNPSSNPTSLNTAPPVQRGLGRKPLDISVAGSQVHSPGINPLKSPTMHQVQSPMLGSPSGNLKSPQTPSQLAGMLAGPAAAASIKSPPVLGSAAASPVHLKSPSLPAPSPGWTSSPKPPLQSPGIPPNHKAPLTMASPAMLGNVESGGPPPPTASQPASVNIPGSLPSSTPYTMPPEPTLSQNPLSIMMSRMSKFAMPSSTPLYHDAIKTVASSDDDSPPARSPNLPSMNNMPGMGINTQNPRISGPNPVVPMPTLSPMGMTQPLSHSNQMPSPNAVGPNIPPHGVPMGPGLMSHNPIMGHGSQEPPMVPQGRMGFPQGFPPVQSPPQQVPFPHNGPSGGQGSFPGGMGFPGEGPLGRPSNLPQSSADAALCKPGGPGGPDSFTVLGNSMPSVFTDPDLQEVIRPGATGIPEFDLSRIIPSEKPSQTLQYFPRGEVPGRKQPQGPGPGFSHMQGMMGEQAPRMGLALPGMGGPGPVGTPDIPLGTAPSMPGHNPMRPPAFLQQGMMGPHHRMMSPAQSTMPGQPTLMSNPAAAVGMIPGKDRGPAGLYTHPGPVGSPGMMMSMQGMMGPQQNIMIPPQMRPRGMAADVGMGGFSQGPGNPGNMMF
Description: Inhibition of full length C-terminal 6-His-tagged beta-catenin (1 to 781 residues) (unknown origin) expressed in Escherichia coli BL21 (DE3)-N-terminal biotinylated human BCL9 (350 to 375 residues) protein-protein interaction incubated for 1 hr by Alphascreen assay. (Bead proximity is the source of the signal in Alpha formats.)

Another test relates to SW480. The test is described as follows: Antiproliferative activity against human SW480 cells incubated for 72 hrs by MTS assay. The test is classed as functional, cell-based. The conditions noted are these: SW480, 72 h.
The next test relates to HCT-116. The test is described as follows: Antiproliferative activity against human HCT116 cells incubated for 72 hrs by MTS assay. The conditions noted are these: HCT-116, 72 h. The test is classed as functional, cell-based. Background: Tetrazolium dyes change colour on reduction, which living cells bring about.
The test system of a further test is MDA-MB-231. Description: Antiproliferative activity against human MDA-MB-231 cells incubated for 72 hrs by MTS assay. The test is classed as functional, cell-based. Particulars: MDA-MB-231, 72 h.
In the next test the test system is MDA-MB-468. The test is described as follows: Antiproliferative activity against human MDA-MB-468 cells incubated for 72 hrs by MTS assay. The class given is functional, cell-based. The conditions noted are these: MDA-MB-468, 72 h.
The next test deals with MCF-10A. The test is described as follows: Antiproliferative activity against human MCF10A cells incubated for 72 hrs by MTS assay. The class given is functional, cell-based.

As a reminder, the IC50 is the concentration at which inhibition is half-maximal. For orientation: Ki means the dissociation constant of the complex between target and ligand, obtained from inhibition or displacement. The low end stands for a stronger hold on the target, the high end for a looser hold on the target. In test [1], `CC(C)(Oc1cccc(N2CCCC(C(=O)N(Cc3ccc(-c4cccs4)cc3)C3CC3)C2)c1)C(=O)NS(=O)(=O)c1ccccc1` (centres undefined) gave an IC50 of 7.7 µM and a Ki of 6.4 µM.

In test [1], `CC(C)(Oc1cccc(N2CCCC(C(=O)N(Cc3ccc(-c4ccsc4)cc3)C3CC3)C2)c1)C(=O)O` (centres undefined) registered an IC50 of 35 µM and a Ki of 30 µM.

Turning to `COC(=O)C(C)(C)Oc1cccc(N2CCCC(C(=O)N(Cc3ccc(-c4cccs4)cc3)C3CC3)C2)c1` (centres undefined), in test [1], the IC50 is above 100 µM and the Ki is above 90 µM.

As for `CC(C)c1ccc(CCNC(=O)C2CCCN(c3cccc(OC(C)(C)C(=O)O)c3)C2)cc1` (centres undefined), in test [1], the IC50 stood at 92 µM and affinity was put at a Ki of 82 µM.

In test [1], `CC(C)(Oc1cccc(N2CCCC(C(=O)N(Cc3ccc(-c4cccs4)cc3)C3CC3)C2)c1)C(=O)NS(C)(=O)=O` (centres undefined) had an IC50 of 24 µM and a Ki of 21 µM.

In test [1], `COc1cccc(S(=O)(=O)NC(=O)C(C)(C)Oc2cccc(N3CCC[C@@H](C(=O)N(Cc4ccc(-c5cccs5)cc4)C4CC4)C3)c2)c1` yielded an IC50 of 5.7 µM and a Ki of 4.6 µM.

`CC(C)c1ccc(CNC(=O)C2CCCN(c3cccc(OC(C)(C)C(=O)O)c3)C2)cc1` (centres undefined): in test [1], the IC50 worked out at 83 µM and affinity was put at a Ki of 71 µM.

In test [1], `COc1cccc(S(=O)(=O)NC(=O)C(C)(C)Oc2cccc(N3CCCC(C(=O)N(Cc4ccc(-c5cccs5)cc4)C4CC4)C3)c2)c1` (centres undefined) returned an IC50 of 5.1 µM and an inhibition constant (Ki) of 4.1 µM.

For `CC(C)(C)OC(=O)C(C)(C)Oc1cccc(N2CCCC(C(=O)N(Cc3ccc(-c4cccs4)cc3)C3CC3)C2)c1` (centres undefined), the IC50 was above 100 µM in test [1]; above 200 µM in the test on SW480; above 200 µM with HCT-116; above 200 µM with MDA-MB-231; above 200 µM in the test with MDA-MB-468; above 200 µM with MCF-10A. For the same molecule, in test [1], the Ki was above 90 µM.

In test [1], `CC(C)c1ccc(CN(C(=O)C2CCCN(c3cccc(OC(C)(C)C(=O)O)c3)C2)C(C)C)cc1` (centres undefined) had an IC50 of 52 µM and a Ki of 46 µM.

In the case of `CC(C)(Oc1cccc(N2CCCC(C(=O)N(Cc3ccc(-c4cccs4)cc3)C3CC3)C2)c1)C(=O)NS(=O)(=O)c1cccc(O)c1` (centres undefined), in test [1], the IC50 was 7.1 µM and the Ki turned out to be 5.8 µM.

In the case of `CC(C)c1ccc(CN(C)C(=O)C2CCCN(c3cccc(OC(C)(C)C(=O)O)c3)C2)cc1` (centres undefined), in test [1], the IC50 came to 71 µM and the affinity corresponds to a Ki of 59 µM.

Turning to `CC(C)(Oc1cccc(N2CCCC(C(=O)N(Cc3ccc(-c4cccs4)cc3)C3CC3)C2)c1)C(=O)NS(=O)(=O)c1ccc(C#N)cc1` (racemic), in test [1], inhibition was half-maximal at 4.8 µM (IC50) and the affinity, expressed as Ki, was 3.9 µM.

In test [1], `Cn1nccc1-c1ccc(CN(C(=O)C2CCCN(c3cccc(OC(C)(C)C(=O)O)c3)C2)C2CC2)cc1` (centres undefined) registered a half-inhibitory concentration (IC50) above 100 µM and a Ki above 90 µM.

On to `CC(C)S(=O)(=O)NC(=O)C(C)(C)Oc1cccc(N2CCCC(C(=O)N(Cc3ccc(-c4cccs4)cc3)C3CC3)C2)c1` (centres undefined), for which, in test [1], the midpoint of inhibition, the IC50, lay at 13 µM and the Ki worked out at 11 µM.

For the molecule `CC(C)(Oc1cccc(N2CCCC(C(=O)N(Cc3ccc(-c4cccs4)cc3)C3CC3)C2)c1)C(=O)O` (centres undefined), the IC50 is 15 µM in test [1]; 137 µM in the test on SW480; 112 µM in the test with HCT-116; 103 µM in the test on MDA-MB-231; 95.9 µM in the test on MDA-MB-468; 98.5 µM in the test with MCF-10A. For the same molecule, the Ki in test [1] was found to be 13 µM.

In test [1], `CC(C)(Oc1cccc(N2CCCC(C(=O)N(Cc3ccc(-c4cccs4)cc3)C3CC3)C2)c1)C(=O)NS(=O)(=O)C1CC1` (centres undefined) gave an IC50 of 23 µM and a Ki of 19 µM.

Consider `CC(C)(Oc1cccc(N2CCC[C@@H](C(=O)N(Cc3ccc(-c4cccs4)cc3)C3CC3)C2)c1)C(=O)NS(=O)(=O)c1ccc(C#N)cc1`, for which, in test [1], the midpoint of inhibition, the IC50, lay at 4.8 µM and the affinity corresponds to a Ki of 3.9 µM.

In test [1], `CC(C)(Oc1cccc(N2CCCC(C(=O)N(Cc3ccc(-c4cn[nH]c4)cc3)C3CC3)C2)c1)C(=O)O` (centres undefined) yielded an IC50 above 100 µM and a Ki above 90 µM.

In the case of `CC(C)(Oc1cccc(N2CCCC(C(=O)N(Cc3ccc(-c4ccn[nH]4)cc3)C3CC3)C2)c1)C(=O)O` (centres undefined), in test [1], half-maximal inhibition (IC50) required 72 µM and the affinity, expressed as Ki, was 61 µM.

As for `CC(C)(Oc1cccc(N2CCCC(C(=O)N(Cc3ccc(-c4ccoc4)cc3)C3CC3)C2)c1)C(=O)O` (centres undefined), in test [1], the IC50 was above 100 µM and the Ki was above 90 µM.

As for `CC(C)(Oc1cccc(N2CCCC(C(=O)N(Cc3ccc(-c4ccco4)cc3)C3CC3)C2)c1)C(=O)O` (centres undefined), in test [1], the IC50 is 50 µM and affinity was put at a Ki of 42 µM.

In the case of `CC(C)c1ccc(CN(C(=O)C2CCCN(c3cccc(OC(C)(C)C(=O)O)c3)C2)C2CC2)cc1` (centres undefined), in test [1], inhibition was half-maximal at 40 µM (IC50) and the affinity, expressed as Ki, was 36 µM.

With `CCN(Cc1ccc(C(C)C)cc1)C(=O)C1CCCN(c2cccc(OC(C)(C)C(=O)O)c2)C1` (centres undefined), in test [1], the IC50 worked out at 59 µM and the Ki was 50 µM.

In test [1], `Cn1cc(-c2ccc(CN(C(=O)C3CCCN(c4cccc(OC(C)(C)C(=O)O)c4)C3)C3CC3)cc2)cn1` (centres undefined) returned an IC50 above 100 µM and an inhibition constant (Ki) above 90 µM.

In the case of `CC(C)(Oc1cccc(N2CCCC(C(=O)N(Cc3ccc(-c4cccs4)cc3)C3CC3)C2)c1)C(=O)NS(=O)(=O)c1cccc(C#N)c1` (centres undefined), in test [1], the IC50 is 6.3 µM and affinity was put at a Ki of 5.1 µM.

In test [1], `COc1ccc(S(=O)(=O)NC(=O)C(C)(C)Oc2cccc(N3CCCC(C(=O)N(Cc4ccc(-c5cccs5)cc4)C4CC4)C3)c2)cc1` (centres undefined) came in with a half-maximal inhibitory concentration (IC50) of 6.1 µM and an inhibitory constant (Ki) of 4.9 µM.

The values above are taken from ChEMBL document CHEMBL4823263, “Discovery of 2-(3-(3-Carbamoylpiperidin-1-yl)phenoxy)acetic Acid Derivatives as Novel Small-Molecule Inhibitors of the β-Catenin/B-Cell Lymphoma 9 Protein-Protein Interaction” (J Med Chem, 2021).
